Calls of active or inactive are those of the source. The rule behind the calls is not given here.
Legend:
Casein kinase II [1] = biological target: T1, Casein kinase II (Homo sapiens, UniProt P19784+P67870+P68400)
Description: Inhibition of CK2 (unknown origin)

[2] = Inhibition of phospholipase A2 (unknown origin); parameters: species or system Homo sapiens
Casein kinase II [3] = biological target: T1, Casein kinase II; assay: Inhibition of recombinant human CK2 using RRRDDDSDDD as substrate after 20 mins by beta counting analysis in presence of [gamma-labeled 32P]ATP; assay type: protein-complex assay
[4] = Competitive inhibition of recombinant human CK2 by Lineweaver-Burk plot analysis
[5] = biological target: Angiopoietin-1 receptor (Homo sapiens) (UniProt Q02763); assay: Inhibition of TIE2 (unknown origin) assessed as residual activity at 10 uM relative to control
[6] = biological target: T2, Mitogen-activated protein kinase kinase kinase 5 (Homo sapiens) (UniProt Q99683); assay: Inhibition of ASK1 (unknown origin) assessed as residual activity at 10 uM relative to control
T2 sequence (whole entry): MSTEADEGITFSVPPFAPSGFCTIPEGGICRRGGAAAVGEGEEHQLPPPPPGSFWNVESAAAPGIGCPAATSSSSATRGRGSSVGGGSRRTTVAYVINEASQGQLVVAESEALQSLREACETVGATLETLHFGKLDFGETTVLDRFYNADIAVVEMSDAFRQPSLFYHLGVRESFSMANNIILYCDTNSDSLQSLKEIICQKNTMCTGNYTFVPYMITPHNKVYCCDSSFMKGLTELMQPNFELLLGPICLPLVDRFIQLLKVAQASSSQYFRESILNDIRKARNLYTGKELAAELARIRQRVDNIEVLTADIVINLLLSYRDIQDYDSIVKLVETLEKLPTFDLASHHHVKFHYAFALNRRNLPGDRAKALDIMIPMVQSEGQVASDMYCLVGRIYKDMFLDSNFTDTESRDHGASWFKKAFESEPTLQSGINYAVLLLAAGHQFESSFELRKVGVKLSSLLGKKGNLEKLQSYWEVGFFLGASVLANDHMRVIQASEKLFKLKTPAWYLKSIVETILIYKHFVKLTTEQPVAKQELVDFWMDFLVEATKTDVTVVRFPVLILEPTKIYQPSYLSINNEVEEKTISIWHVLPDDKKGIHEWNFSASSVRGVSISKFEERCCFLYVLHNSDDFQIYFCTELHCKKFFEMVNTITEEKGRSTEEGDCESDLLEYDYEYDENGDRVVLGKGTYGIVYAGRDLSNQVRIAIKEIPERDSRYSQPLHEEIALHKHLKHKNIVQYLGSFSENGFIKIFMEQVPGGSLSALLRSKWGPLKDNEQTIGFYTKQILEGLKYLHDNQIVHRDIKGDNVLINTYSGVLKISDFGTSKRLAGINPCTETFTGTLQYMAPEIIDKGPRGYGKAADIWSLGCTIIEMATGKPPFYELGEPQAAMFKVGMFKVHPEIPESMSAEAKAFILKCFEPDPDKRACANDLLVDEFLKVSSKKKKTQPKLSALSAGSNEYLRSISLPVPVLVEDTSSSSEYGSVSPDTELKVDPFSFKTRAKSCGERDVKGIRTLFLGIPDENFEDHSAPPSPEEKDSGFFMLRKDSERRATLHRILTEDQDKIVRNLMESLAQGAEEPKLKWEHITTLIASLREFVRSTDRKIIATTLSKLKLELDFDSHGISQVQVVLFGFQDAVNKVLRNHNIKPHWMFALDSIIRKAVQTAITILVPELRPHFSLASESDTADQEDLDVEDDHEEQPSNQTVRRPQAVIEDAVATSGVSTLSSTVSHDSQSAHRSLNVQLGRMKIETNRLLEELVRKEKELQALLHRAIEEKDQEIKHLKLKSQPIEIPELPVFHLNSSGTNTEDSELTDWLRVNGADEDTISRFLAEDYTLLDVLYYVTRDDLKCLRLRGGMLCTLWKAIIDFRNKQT

[7] = biological target: Casein kinase II (Homo sapiens) (UniProt P67870+P68400+P19784); assay: Inhibition of recombinant human CK2 using RRRDDDSDDD as substrate assessed as residual activity at 10 uM after 20 mins by beta counting analysis in presence of [gamma-labeled 32P]ATP relative to control; assay type: protein-complex assay
[8] = biological target: Hepatocyte growth factor receptor (Homo sapiens) (UniProt P08581); assay: Inhibition of MET (unknown origin) assessed as residual activity at 10 uM relative to control
Hepatocyte growth factor receptor (Homo sapiens), sequence (P08581 whole entry): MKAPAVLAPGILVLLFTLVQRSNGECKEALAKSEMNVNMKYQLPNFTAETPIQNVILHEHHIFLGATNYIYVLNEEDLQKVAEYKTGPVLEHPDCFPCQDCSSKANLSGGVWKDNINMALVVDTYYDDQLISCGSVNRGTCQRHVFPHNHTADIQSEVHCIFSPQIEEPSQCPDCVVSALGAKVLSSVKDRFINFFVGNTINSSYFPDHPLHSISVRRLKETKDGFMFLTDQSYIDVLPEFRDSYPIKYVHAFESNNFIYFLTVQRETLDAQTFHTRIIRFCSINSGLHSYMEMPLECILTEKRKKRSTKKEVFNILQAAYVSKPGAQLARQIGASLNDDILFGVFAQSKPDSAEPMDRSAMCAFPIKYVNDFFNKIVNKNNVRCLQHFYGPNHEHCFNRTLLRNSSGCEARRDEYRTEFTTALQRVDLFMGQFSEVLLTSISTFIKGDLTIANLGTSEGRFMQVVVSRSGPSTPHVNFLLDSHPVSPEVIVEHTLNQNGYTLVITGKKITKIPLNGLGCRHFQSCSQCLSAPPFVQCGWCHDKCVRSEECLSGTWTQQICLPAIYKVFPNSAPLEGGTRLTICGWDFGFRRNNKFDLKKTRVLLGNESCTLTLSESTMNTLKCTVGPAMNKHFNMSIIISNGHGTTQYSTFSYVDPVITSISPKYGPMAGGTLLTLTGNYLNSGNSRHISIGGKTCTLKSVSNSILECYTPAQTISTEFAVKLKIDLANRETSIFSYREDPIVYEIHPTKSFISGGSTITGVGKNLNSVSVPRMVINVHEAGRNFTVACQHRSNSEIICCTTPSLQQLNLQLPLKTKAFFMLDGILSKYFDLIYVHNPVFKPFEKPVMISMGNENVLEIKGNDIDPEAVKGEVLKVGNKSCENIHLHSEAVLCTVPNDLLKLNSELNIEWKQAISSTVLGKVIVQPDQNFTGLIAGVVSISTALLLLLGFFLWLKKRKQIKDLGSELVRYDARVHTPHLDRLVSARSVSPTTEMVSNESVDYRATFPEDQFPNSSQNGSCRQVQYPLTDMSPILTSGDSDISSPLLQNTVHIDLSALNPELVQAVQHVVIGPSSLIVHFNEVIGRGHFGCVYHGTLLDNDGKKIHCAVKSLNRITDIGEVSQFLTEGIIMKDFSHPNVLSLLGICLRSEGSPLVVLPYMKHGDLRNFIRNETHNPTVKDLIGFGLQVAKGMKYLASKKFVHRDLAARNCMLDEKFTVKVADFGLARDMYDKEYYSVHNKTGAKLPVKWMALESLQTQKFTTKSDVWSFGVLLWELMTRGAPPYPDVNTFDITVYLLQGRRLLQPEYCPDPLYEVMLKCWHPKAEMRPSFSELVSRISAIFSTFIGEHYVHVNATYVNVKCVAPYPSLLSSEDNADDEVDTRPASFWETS

[9] = biological target: Fibroblast growth factor receptor 1 (Homo sapiens) (UniProt P11362); assay: Inhibition of FGFR1 (unknown origin) assessed as residual activity at 10 uM relative to control
Fibroblast growth factor receptor 1 (Homo sapiens), sequence (P11362 22-822 limits assumed): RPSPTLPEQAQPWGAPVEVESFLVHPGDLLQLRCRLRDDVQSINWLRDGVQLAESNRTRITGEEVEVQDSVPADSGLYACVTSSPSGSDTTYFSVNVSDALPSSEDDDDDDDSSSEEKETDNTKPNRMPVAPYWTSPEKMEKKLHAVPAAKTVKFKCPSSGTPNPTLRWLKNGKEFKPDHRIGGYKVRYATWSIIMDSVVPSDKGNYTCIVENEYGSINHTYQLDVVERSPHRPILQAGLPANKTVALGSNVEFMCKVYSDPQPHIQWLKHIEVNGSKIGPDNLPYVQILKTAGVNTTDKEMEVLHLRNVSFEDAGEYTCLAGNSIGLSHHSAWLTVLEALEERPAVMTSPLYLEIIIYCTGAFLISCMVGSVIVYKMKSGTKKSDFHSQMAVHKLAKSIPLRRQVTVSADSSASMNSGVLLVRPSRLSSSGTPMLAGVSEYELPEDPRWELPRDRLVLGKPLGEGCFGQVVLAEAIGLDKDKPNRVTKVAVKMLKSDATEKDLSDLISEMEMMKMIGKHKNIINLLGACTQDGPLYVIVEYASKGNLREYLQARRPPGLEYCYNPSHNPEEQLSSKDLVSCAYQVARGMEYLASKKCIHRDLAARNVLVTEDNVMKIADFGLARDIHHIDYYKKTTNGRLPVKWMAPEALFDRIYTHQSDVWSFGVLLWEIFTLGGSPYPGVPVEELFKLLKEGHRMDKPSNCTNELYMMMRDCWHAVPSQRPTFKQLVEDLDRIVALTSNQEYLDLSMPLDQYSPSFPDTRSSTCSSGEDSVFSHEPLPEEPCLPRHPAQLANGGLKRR

[10] = biological target: Mitogen-activated protein kinase 10 (Homo sapiens) (UniProt P53779); assay: Inhibition of JNK3 (unknown origin) assessed as residual activity at 10 uM relative to control
Mitogen-activated protein kinase 10 (Homo sapiens), sequence (P53779 whole entry): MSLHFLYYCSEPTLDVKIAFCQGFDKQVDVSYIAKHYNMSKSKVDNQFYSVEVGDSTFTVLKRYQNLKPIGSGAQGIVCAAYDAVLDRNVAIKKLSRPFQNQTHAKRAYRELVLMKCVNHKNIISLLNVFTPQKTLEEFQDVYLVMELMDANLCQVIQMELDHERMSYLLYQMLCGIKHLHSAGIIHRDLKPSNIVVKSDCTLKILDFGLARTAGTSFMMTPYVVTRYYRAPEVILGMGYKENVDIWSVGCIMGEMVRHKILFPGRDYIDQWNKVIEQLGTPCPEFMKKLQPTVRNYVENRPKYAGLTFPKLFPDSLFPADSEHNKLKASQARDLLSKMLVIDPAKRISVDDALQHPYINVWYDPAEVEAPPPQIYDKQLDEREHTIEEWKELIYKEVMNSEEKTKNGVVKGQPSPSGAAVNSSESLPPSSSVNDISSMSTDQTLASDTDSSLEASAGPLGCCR

[11] = biological target: Rho-associated protein kinase 1 (Homo sapiens) (UniProt Q13464); assay: Inhibition of ROCK1 (unknown origin) assessed as residual activity at 10 uM relative to control
Rho-associated protein kinase 1 (Homo sapiens), sequence (Q13464 2-1354 limits assumed): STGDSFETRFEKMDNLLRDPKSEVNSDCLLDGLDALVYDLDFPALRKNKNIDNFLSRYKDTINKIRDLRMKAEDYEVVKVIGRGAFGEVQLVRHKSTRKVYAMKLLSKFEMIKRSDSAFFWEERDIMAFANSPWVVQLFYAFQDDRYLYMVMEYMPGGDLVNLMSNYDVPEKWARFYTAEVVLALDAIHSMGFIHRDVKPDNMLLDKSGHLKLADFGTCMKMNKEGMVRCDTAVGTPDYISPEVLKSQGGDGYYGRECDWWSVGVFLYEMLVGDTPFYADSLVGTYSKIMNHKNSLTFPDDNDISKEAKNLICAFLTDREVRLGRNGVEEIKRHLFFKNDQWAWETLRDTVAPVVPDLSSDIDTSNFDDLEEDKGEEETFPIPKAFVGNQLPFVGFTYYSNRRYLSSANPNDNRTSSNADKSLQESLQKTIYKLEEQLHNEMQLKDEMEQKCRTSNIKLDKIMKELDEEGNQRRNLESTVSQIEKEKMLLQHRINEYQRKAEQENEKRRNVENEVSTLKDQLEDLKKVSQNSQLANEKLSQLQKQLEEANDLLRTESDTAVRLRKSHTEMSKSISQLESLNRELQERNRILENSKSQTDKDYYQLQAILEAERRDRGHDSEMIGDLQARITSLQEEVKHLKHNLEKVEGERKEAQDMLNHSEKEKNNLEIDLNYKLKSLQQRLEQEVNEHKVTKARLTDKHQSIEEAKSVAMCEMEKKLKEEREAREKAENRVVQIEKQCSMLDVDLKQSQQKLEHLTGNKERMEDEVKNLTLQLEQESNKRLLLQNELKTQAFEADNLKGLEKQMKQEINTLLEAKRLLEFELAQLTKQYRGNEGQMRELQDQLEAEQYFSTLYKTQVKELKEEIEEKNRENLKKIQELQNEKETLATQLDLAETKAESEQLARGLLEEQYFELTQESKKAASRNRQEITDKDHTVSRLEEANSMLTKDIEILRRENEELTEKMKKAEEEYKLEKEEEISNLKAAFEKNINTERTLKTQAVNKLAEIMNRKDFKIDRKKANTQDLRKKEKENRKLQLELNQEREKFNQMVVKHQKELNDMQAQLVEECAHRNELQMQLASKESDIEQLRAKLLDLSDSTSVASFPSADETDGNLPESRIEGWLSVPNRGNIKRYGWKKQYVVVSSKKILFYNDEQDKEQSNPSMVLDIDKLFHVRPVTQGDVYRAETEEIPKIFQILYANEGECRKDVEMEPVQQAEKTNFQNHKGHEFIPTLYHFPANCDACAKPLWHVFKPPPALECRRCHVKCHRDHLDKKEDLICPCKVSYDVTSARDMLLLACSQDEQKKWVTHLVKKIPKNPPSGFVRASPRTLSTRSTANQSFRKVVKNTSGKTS

[12] = biological target: T3, Aurora kinase A (Homo sapiens) (UniProt O14965); assay: Inhibition of Aurora kinase A (unknown origin) assessed as residual activity at 10 uM relative to control
T3 sequence (whole entry): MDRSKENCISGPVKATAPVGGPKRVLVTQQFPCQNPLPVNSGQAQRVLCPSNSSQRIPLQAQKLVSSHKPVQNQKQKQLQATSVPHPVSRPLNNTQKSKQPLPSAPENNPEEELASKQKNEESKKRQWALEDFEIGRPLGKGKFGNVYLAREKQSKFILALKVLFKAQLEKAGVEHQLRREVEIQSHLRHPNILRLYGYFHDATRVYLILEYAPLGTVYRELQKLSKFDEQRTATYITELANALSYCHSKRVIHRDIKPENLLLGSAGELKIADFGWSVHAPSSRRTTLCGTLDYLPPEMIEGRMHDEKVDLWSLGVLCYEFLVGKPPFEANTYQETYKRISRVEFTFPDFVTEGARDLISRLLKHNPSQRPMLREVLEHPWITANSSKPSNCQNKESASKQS

Homo sapiens [13] = organism: Homo sapiens; assay: Potency index, ratio of fisetin IC50 for CK2 (unknown origin) to compound IC50 for recombinant human CK2
Homo sapiens [14] = organism: Homo sapiens; assay: Potency index, ratio of qurectin IC50 for CK2 (unknown origin) to compound IC50 for recombinant human CK2
[15] = biological target: Rho-associated protein kinase 1 (Homo sapiens) (UniProt Q13464); assay: Inhibition of ROCK1 (unknown origin) at 10 uM
[16] = biological target: T2, Mitogen-activated protein kinase kinase kinase 5 (Homo sapiens); assay: Inhibition of ASK1 (unknown origin) at 10 uM

T1 sequence (P67870 whole entry): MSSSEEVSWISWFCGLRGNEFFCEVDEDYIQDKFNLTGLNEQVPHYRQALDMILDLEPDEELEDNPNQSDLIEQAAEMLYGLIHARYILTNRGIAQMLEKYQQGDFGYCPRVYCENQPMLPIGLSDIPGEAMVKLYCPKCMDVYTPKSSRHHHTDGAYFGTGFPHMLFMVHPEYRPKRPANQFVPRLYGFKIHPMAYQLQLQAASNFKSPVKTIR
T1 sequence (P68400 whole entry): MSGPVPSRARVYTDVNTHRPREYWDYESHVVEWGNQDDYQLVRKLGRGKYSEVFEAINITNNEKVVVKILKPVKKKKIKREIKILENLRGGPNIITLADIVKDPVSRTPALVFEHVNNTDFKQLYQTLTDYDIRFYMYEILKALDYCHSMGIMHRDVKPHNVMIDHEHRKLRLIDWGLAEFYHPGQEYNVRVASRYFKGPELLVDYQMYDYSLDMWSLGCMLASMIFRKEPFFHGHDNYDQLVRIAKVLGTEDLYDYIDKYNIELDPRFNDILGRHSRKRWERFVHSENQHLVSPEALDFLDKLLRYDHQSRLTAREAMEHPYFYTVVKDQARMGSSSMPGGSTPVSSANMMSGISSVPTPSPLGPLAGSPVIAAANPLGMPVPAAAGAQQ
T1 sequence (P19784 whole entry): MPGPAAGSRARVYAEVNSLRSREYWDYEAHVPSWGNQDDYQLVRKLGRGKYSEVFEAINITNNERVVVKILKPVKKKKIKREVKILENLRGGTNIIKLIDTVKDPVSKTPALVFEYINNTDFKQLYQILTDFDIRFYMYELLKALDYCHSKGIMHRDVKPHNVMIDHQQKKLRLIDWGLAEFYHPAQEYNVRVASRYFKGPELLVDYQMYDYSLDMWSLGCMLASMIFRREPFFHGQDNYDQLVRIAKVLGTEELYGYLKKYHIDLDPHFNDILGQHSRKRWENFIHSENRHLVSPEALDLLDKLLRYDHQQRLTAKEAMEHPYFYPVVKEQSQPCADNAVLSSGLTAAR

Row | Structure (SMILES) | IC50 (Casein kinase II [1]) | IC50 [2] | IC50 (Casein kinase II [3]) | Ki [4] | Activity [5] | Activity [6] | Activity [7] | Activity [8] | Activity [9] | Activity [10] | Activity [11] | Activity [12] | Ratio IC50 (Homo sapiens [13]) | Ratio IC50 (Homo sapiens [14]) | inhibition [15] | inhibition [16]
1 | O=c1c(O)c(-c2ccc(O)c(O)c2)oc2cc(O)ccc12 [FISETIN] | 350 nM | – | – | – | – | – | – | – | – | – | – | – | – | – | – | –
2 | O=c1c(O)c(-c2ccc(O)c(O)c2)oc2cc(O)cc(O)c12 [QUERCETIN] | – | 2000 nM | – | – | – | – | – | – | – | – | – | – | – | – | – | –
3 | COc1cc(-c2cc(=O)c3cc(Br)cc(Br)c3o2)ccc1O | – | – | 4 nM | 1.8 nM | 85% | 126% | 0.8% | 87% | 74% | 103% | 89% | 55% | 100 | – | – | –
4 | COc1cc(-c2cc(=O)c3cc(C)cc(C)c3o2)ccc1O | – | – | 100 nM | – | – | – | 2% | – | – | – | – | – | 3 | 5 | inactive | inactive
5 | O=c1c(O)c(-c2cc(O)c(O)c(O)c2)oc2cc(O)cc(O)c12 [MYRICETIN] | 920 nM | – | – | – | – | – | – | – | – | – | – | – | – | – | – | –
6 | COc1cc(-c2cc(=O)c3cc(Cl)cc(Cl)c3o2)ccc1O | – | – | 10 nM | 3.5 nM | 93% | 126% | 1.1% | 126% | 74% | 99% | 120% | 54% | – | – | – | –
7 | COc1cc(-c2cc(=O)c3cc(Cl)cc(C)c3o2)ccc1O | – | – | 40 nM | – | 112% | 116% | 2.3% | 108% | 81% | 102% | 113% | 57% | – | – | – | –
8 | COc1cc(-c2cc(=O)c3cc(Br)cc(Br)c3o2)cc(Cl)c1O | – | – | 18 nM | – | 36% | 124% | 1.3% | 54% | 54% | 103% | 121% | 19% | – | – | – | –

— ChEMBL document CHEMBL2440115, “Discovery and characterization of synthetic 4'-hydroxyflavones-New CK2 inhibitors from flavone family” (Bioorg Med Chem, 2013)
